Data set [1] concerns the target CYP2C9 (Homo sapiens, UniProt P11712). Briefly: Time-dependent inhibition (IC50 shift) of CYP2C9, diclofenac, human liver microsomes. Also on record: incubation mixtures containing pooled human liver microsomes (HLMs, XTreme 200, XenoTech); tissue XenoTech XTreme 200; host or cells: pooled human liver microsomes. Format: in vitro ADME. How it is done:
The time-dependent inhibition of selamariscina A against CYP2C8 and CYP2C9 enzymes was evaluated using an IC50 shift method. Selamariscina A was pre-incubated at six concentrations (0, 0.002, 0.005, 0.02, 0.05, and 0.2 μM) with HLMs in the presence of an NDAPH generation system for 30 min at 37 °C. The reaction was initiated by adding 1 μM amodiaquine or 10 μM diclofenac and further incubated for 10 min. Incubation was terminated by adding 50 μL of ice-cold acetonitrile containing 7 nM trimipramine. After centrifugation, aliquots of supernatants were analyzed by LC–MS/MS.
All metabolites and the IS were separated on a Kinetex XB-C18 column (100 × 2.10 mm, 2.6 μm, 100 Å; Phenomenex, Torrance, CA, USA) and analyzed using a Shimadzu LCMS 8060 triple-quadrupole mass spectrometer coupled with a Nexera X2 ultra high-performance liquid chromatography system (Shimadzu, Kyoto, Japan) equipped with an electrospray ionization interface. The mobile phase consisted of 0.1% formic acid in water (A) and 0.1% formic acid in acetonitrile (B). The elution condition was set as 8% B (0–0.5 min), 8%→60% B (0.5–5 min), 60% B (5–6 min), 60%→8% B (6–6.1 min) and 8% B (6.1–9 min) for the analysis of metabolites of P450 probe substrates and set as 0%→40% B (0–1 min), 40%→50% B (1–5 min), 50%→0% B (5–5.1 min), and 0% B (5.1–8 min) for the analysis of metabolites of UGT probe substrates. The flow rate was 0.2 mL/min. Electrospray ionization was performed in positive-ion mode at 4000 V or in negative-ion mode at −3500 V. The optimum operating conditions were determined as follows: vaporizer temperature, 300 °C; capillary temperature, 350 °C; collision gas (argon) pressure, 1.5 mTorr. Quantitation was conducted in selected reaction monitoring (SRM) modes with the precursor-to-product ion transition for each metabolite (Table 1 and Table 2).
We analyzed the data with Shimadzu LabSolution LC–MS software. The IC50 values were calculated by WinNonlin software (Pharsight, Mountain View, CA, USA). […]

In data set [2] the target is T1, UGT1A1 (Homo sapiens, UniProt P22309).
T1 sequence (P22309 26-533): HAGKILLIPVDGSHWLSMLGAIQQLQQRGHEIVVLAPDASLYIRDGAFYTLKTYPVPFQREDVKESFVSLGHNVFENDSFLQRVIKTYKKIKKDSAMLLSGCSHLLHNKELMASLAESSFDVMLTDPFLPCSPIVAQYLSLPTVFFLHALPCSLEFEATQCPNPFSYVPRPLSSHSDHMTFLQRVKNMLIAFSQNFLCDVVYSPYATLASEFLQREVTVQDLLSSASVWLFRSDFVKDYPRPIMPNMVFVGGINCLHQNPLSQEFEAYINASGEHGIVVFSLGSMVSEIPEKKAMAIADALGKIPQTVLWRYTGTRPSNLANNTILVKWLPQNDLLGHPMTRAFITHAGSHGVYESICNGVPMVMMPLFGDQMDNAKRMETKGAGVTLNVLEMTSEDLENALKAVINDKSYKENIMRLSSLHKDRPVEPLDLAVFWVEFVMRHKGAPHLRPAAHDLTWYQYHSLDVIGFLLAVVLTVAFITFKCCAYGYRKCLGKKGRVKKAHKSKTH
Nature of the data set: Inhibition of UGT1A1 (SN-38 glucuronidation) in human liver microsomes. It counts as in vitro ADME. Further details: tissue XenoTech XTreme 200; host or cells: pooled human liver microsomes. The following applies: substrate SN-38; HLMs 0.25 mg/mL; average ± standard error. Here is the method:
The ability of selamariscina A to inhibit the metabolism of six UGT enzyme probe substrates was evaluated using previously developed methods with minor modifications. The microsomal incubation was performed by dividing the non-interactive substrate cocktail sets (set A included SN-38 for UGT1A1, CDCA for UGT1A3 and TFP for UGT1A4 while set B included N-SER for UGT1A6, MPA for UGT1A9 and NX for UGT2B7) (Table 2). In brief, HLMs (0.25 mg/mL) were activated by incubation in the presence of alamethicin (25 µg/mL) for 15 min on ice. After the addition of UGT probe substrates and inhibitor (0, 0.5, 2, 5, 20 and 50 μM), the incubation mixtures were pre-incubated at 37 °C for 5 min. […] After centrifugation at 18,000 g (5 min, 4 °C), aliquots of supernatants were analyzed by LC–MS/MS. […]
All metabolites and the IS were separated on a Kinetex XB-C18 column (100 × 2.10 mm, 2.6 μm, 100 Å; Phenomenex, Torrance, CA, USA) and analyzed using a Shimadzu LCMS 8060 triple-quadrupole mass spectrometer coupled with a Nexera X2 ultra high-performance liquid chromatography system (Shimadzu, Kyoto, Japan) equipped with an electrospray ionization interface. […] Quantitation was conducted in selected reaction monitoring (SRM) modes with the precursor-to-product ion transition for each metabolite (Table 1 and Table 2).
We analyzed the data with Shimadzu LabSolution LC–MS software. […]
In general terms: Liver microsomes are vesicles of endoplasmic reticulum, rich in cytochrome P450 enzymes.

CYP2C9, sequence (P11712 whole entry): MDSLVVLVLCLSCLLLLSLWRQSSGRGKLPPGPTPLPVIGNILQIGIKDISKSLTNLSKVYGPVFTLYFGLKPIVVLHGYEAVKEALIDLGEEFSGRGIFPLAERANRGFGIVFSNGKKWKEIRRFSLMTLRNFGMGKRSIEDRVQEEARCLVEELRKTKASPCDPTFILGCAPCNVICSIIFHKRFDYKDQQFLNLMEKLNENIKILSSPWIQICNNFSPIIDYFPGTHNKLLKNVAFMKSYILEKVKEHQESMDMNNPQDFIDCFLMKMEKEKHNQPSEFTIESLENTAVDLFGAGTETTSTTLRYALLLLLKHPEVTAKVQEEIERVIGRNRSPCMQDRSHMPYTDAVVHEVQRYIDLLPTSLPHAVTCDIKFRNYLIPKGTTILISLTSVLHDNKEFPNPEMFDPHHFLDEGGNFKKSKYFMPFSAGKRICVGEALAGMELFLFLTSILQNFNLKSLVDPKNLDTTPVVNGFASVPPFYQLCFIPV

For `O=C1CC(c2cc(-c3c(O)ccc4c(=O)cc(-c5ccc(O)cc5)oc34)c(O)cc2O)Oc2cc(O)cc(O)c21` (centres unmarked) [selamariscina A], the IC50 was found to be 92 nM in data set [1] (30 min pre-incubation at 37 °C with NADPH generation system, read-out: IC50, CYP2C9 diclofenac, HLMs pre-incubated with NADPH generation system) and 1700 ± 500 nM in data set [2]. In data set [1] (IC50 shift method), the “Time-dependent inhibition of CYP2C9” value is recorded as “not a time-dependent inhibitor”. Moreover, the IC50 at 10 min in data set [1] (human, human liver microsomes, probe diclofenac (10 μM), no NADPH pre-incubation, read-out: IC50, CYP2C9 diclofenac, untreated HLMs) worked out at 54 nM.
`O=c1cc(-c2ccc(O)c(-c3c(O)cc(O)c4c(=O)cc(-c5ccc(O)cc5)oc34)c2)oc2cc(O)cc(O)c12` [amentoflavone]: the IC50 in data set [2] came to 1700 nM.

The record behind these values is paper PMC7238120, “Strong and Selective Inhibitory Effects of the Biflavonoid Selamariscina A against CYP2C8 and CYP2C9 Enzyme Activities in Human Liver Microsomes” (Pharmaceutics, 2020).
